Reference: patent US11739070B2, “C5A receptor modulators” (IDORSIA PHARMACEUTICALS LTD, priority 2018, dated 2023)

The compounds below were run against T1, C5AR1 (Homo sapiens, UniProt P21730) (assay: hC5a DISCO IC50 assay (PathHunter beta-arrestin, antagonist mode)). Conditions: CHO-K1 C5AR1 beta-arrestin cell line; antagonist vs 1-10 nM C5a agonist; geometric mean values; read-out: C5aR IC50.
T1 construct: host or cells: CHO-K1
T1 sequence (P21730 1-350): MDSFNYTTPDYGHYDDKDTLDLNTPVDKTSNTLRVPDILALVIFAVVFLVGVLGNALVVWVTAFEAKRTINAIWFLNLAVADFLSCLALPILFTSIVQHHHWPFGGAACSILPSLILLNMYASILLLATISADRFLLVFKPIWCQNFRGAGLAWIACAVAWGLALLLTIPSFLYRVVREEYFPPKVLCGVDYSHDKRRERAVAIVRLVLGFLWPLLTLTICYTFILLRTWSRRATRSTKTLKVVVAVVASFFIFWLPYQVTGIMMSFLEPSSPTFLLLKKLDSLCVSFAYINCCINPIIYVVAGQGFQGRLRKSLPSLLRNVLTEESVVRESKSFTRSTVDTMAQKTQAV
Format: cell-based
Summary of the method: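 Antagonist added first, then 1-10 nM C5a agonist; cells incubated 1.5 h at 37 °C. Beta-arrestin signal developed with PathHunter detection reagent, 45 min at RT. IC50 in nmol/l from serial antagonist dilutions, reported as geometric mean of several measurements.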

Row | SMILES | IC50
1 | COc1cccc2c1n(Cc1cnccc1C(C)C)c(=O)n2C1CCN(c2c(C)cccc2F)CC1 [Example 181, 1-[1-(2-Fluoro-6-methyl-phenyl)-piperidin-4-yl]-3-(4-isopropyl-pyridin-3-ylmethyl)-4-methoxy-1,3-dihydro-benzoimidazol-2-one] | 22 nM
2 | COc1cccc2c1n(Cc1ncccc1OC(C)C)c(=O)n2[C@@H]1CCN(c2c(C)cccc2F)C1 [Example 182, 1-[(R)-1-(2-Fluoro-6-methyl-phenyl)-pyrrolidin-3-yl]-3-(3-isopropoxy-pyridin-2-ylmethyl)-4-methoxy-1,3-dihydro-benzoimidazol-2-one] | 9 nM
3 | COc1cccc2c1n(Cc1ccccc1C(F)(F)F)c(=O)n2C1CCCN(c2c(C)cccc2C)CC1 (stereo not drawn) [Example 185, 1-[1-(2,6-Dimethyl-phenyl)-azepan-4-yl]-4-methoxy-3-(2-trifluoromethyl-benzyl)-1,3-dihydro-benzoimidazol-2-one] | 36 nM
4 | COc1cccc2c1n(Cc1cncnc1C(C)C)c(=O)n2[C@@H]1CCN(c2c(C)cccc2F)C1 [Example 186, 1-[(R)-1-(2-Fluoro-6-methyl-phenyl)-pyrrolidin-3-yl]-3-(4-isopropyl-pyrimidin-5-ylmethyl)-4-methoxy-1,3-dihydro-benzoimidazol-2-one] | 14 nM
5 | COc1cccc2c1n(Cc1ccccc1C(F)(F)F)c(=O)n2C1CC2CC1CN2C(=O)OC(C)(C)C (stereo not drawn) [Example 188, 5-[4-Methoxy-2-oxo-3-(2-trifluoromethyl-benzyl)-2,3-dihydro-benzoimidazol-1-yl]-2-aza-bicyclo[2.2.1]heptane-2-carboxylic acid tert-butyl ester] | 313 nM
6 | COc1cccc2c1n(Cc1ccccc1C(F)(F)F)c(=O)n2C1C2CC1CN(C(=O)OC(C)(C)C)C2 (stereo not drawn) [Example 191, 6-[4-Methoxy-2-oxo-3-(2-trifluoromethyl-benzyl)-2,3-dihydro-benzoimidazol-1-yl]-3-aza-bicyclo[3.1.1]heptane-3-carboxylic acid tert-butyl ester] | 114 nM
7 | COc1cccc2c1n(Cc1cncnc1C(C)C)c(=O)n2C1CCN(c2c(C)cccc2F)CC1 [Example 192, 1-[1-(2-Fluoro-6-methyl-phenyl)-piperidin-4-yl]-3-(4-isopropyl-pyrimidin-5-ylmethyl)-4-methoxy-1,3-dihydro-benzoimidazol-2-one] | 42 nM
8 | COCCNC(=O)c1cccc2c1n(Cc1ccccc1C(F)(F)F)c(=O)n2[C@@H]1CCN(c2c(F)cccc2C#N)C1 [Example 194, 1-[(R)-1-(2-Cyano-6-fluoro-phenyl)-pyrrolidin-3-yl]-2-oxo-3-(2-trifluoromethyl-benzyl)-2,3-dihydro-1H-benzoimidazole-4-carboxylic acid (2-methoxy-ethyl)-amide] | 1480 nM
9 | COc1cccc2c1n(Cc1ccccc1C(F)(F)F)c(=O)n2C1C2CC1CN(c1c(C)cccc1F)C2 (stereo not drawn) [Example 197, 1-[3-(2-Fluoro-6-methyl-phenyl)-3-aza-bicyclo[3.1.1]hept-6-yl]-4-methoxy-3-(2-trifluoromethyl-benzyl)-1,3-dihydro-benzoimidazol-2-one] | 74 nM
10 | COc1cccc2c1n(Cc1ncccc1C(F)(F)F)c(=O)n2[C@@H]1CCN(c2c(C)cccc2F)C1 [Example 202, 1-[(R)-1-(2-Fluoro-6-methyl-phenyl)-pyrrolidin-3-yl]-4-methoxy-3-(3-trifluoromethyl-pyridin-2-ylmethyl)-1,3-dihydro-benzoimidazol-2-one] | 2 nM
11 | COCCOc1ccccc1N1CC[C@@H](n2c(=O)n(Cc3ccccc3C(F)(F)F)c3c(OC)cccc32)C1 [Example 204, 4-Methoxy-1-{(R)-1-[2-(2-methoxy-ethoxy)-phenyl]-pyrrolidin-3-yl}-3-(2-trifluoromethyl-benzyl)-1,3-dihydro-benzoimidazol-2-one] | 30 nM
12 | COC1CN(c2nccc3c2n(Cc2ccccc2C(F)(F)F)c(=O)n3[C@@H]2CCN(c3c(C)cccc3F)C2)C1 [Example 205, 1-[(R)-1-(2-Fluoro-6-methyl-phenyl)-pyrrolidin-3-yl]-4-(3-methoxy-azetidin-1-yl)-3-(2-trifluoromethyl-benzyl)-1,3-dihydro-imidazo[4,5-c]pyridin-2-one] | 45 nM
13 | COc1cccc2c1n(Cc1ccccc1OC1CC1)c(=O)n2[C@@H]1CCN(c2c(C)cccc2F)C1 [Example 208, 3-(2-Cyclopropoxy-benzyl)-1-[(R)-1-(2-fluoro-6-methyl-phenyl)-pyrrolidin-3-yl]-4-methoxy-1,3-dihydro-benzoimidazol-2-one] | 19 nM

Further compounds by falling IC50, results first:

Row | IC50 | SMILES
14 | 2300 nM | Cc1cccc(F)c1N1CC[C@@H](n2c(=O)n(Cc3ccccc3C(F)(F)F)c3c(N4CCN(C)CC4)nccc32)C1 [Example 206, 1-[(R)-1-(2-Fluoro-6-methyl-phenyl)-pyrrolidin-3-yl]-4-(4-methyl-piperazin-1-yl)-3-(2-trifluoromethyl-benzyl)-1,3-dihydro-imidazo[4,5-c]pyridin-2-one]
15 | 2290 nM | COc1cccc2c1n(Cc1ccccc1C(F)(F)F)c(=O)n2C1CCN(C(=O)OC(C)(C)C)CC1F (stereo not drawn) [Example 210, 3-Fluoro-4-[4-methoxy-2-oxo-3-(2-trifluoromethyl-benzyl)-2,3-dihydro-benzoimidazol-1-yl]-piperidine-1-carboxylic acid tert-butyl ester]
16 | 632 nM | N#Cc1cccc(F)c1N1CC[C@@H](n2c(=O)n(Cc3ccccc3C(F)(F)F)c3c(C(=O)NCCO)cccc32)C1 [Example 193, 1-[(R)-1-(2-Cyano-6-fluoro-phenyl)-pyrrolidin-3-yl]-2-oxo-3-(2-trifluoromethyl-benzyl)-2,3-dihydro-1H-benzoimidazole-4-carboxylic acid (2-hydroxy-ethyl)-amide]
17 | 508 nM | COCCNc1nccc2c1n(Cc1ccccc1C(F)(F)F)c(=O)n2[C@@H]1CCN(c2c(C)cccc2F)C1 [Example 207, 1-[(R)-1-(2-Fluoro-6-methyl-phenyl)-pyrrolidin-3-yl]-4-(2-methoxy-ethylamino)-3-(2-trifluoromethyl-benzyl)-1,3-dihydro-imidazo[4,5-c]pyridin-2-one]
18 | 118 nM | COc1cccc2c1n(Cc1ccccc1C(F)(F)F)c(=O)n2C1CC2CC1CN2c1c(C)cccc1F (stereo not drawn) [Example 190, 1-[2-(2-Fluoro-6-methyl-phenyl)-2-aza-bicyclo[2.2.1]hept-5-yl]-4-methoxy-3-(2-trifluoromethyl-benzyl)-1,3-dihydro-benzoimidazol-2-one]
19 | 36 nM | COc1cccc2c1n(Cc1ccccc1C(F)(F)F)c(=O)n2C1CCCN(c2c(C)cccc2F)CC1 (stereo not drawn) [Example 184, 1-[1-(2-Fluoro-6-methyl-phenyl)-azepan-4-yl]-4-methoxy-3-(2-trifluoromethyl-benzyl)-1,3-dihydro-benzoimidazol-2-one]
20 | 34 nM | COc1cccc2c1n(Cc1ccccc1OC1CC1)c(=O)n2C1CCN(c2c(C)cccc2F)CC1 [Example 209, 3-(2-Cyclopropoxy-benzyl)-1-[1-(2-fluoro-6-methyl-phenyl)-piperidin-4-yl]-4-methoxy-1,3-dihydro-benzoimidazol-2-one]
21 | 31 nM | COc1cccc2c1n(Cc1ccccc1C(F)(F)F)c(=O)n2[C@@H]1CCN(c2ccccc2OC(F)(F)F)C1 [Example 201, 4-Methoxy-1-[(R)-1-(2-trifluoromethoxy-phenyl)-pyrrolidin-3-yl]-3-(2-trifluoromethyl-benzyl)-1,3-dihydro-benzoimidazol-2-one]
22 | 26 nM | COc1cccc2c1n(Cc1nccnc1C(C)C)c(=O)n2C1CCN(c2c(C)cccc2F)CC1 [Example 187, 1-[1-(2-Fluoro-6-methyl-phenyl)-piperidin-4-yl]-3-(3-isopropyl-pyrazin-2-ylmethyl)-4-methoxy-1,3-dihydro-benzoimidazol-2-one]
23 | 20 nM | COc1cccc2c1n(Cc1cccnc1C(F)(F)F)c(=O)n2[C@@H]1CCN(c2c(C)cccc2F)C1 [Example 195, 1-[(R)-1-(2-Fluoro-6-methyl-phenyl)-pyrrolidin-3-yl]-4-methoxy-3-(2-trifluoromethyl-pyridin-3-ylmethyl)-1,3-dihydro-benzoimidazol-2-one]
24 | 14 nM | COc1cccc2c1n(Cc1ncccc1OC(C)C)c(=O)n2C1CCN(c2c(C)cccc2F)CC1 [Example 183, 1-[1-(2-Fluoro-6-methyl-phenyl)-piperidin-4-yl]-3-(3-isopropoxy-pyridin-2-ylmethyl)-4-methoxy-1,3-dihydro-benzoimidazol-2-one]
25 | 13 nM | COc1cccc2c1n(Cc1nccnc1C(C)C)c(=O)n2[C@@H]1CCN(c2c(C)cccc2F)C1 [Example 189, 1-[(R)-1-(2-Fluoro-6-methyl-phenyl)-pyrrolidin-3-yl]-3-(3-isopropyl-pyrazin-2-ylmethyl)-4-methoxy-1,3-dihydro-benzoimidazol-2-one]
26 | 9 nM | COc1cccc2c1n(Cc1cnccc1C(C)C)c(=O)n2[C@@H]1CCN(c2c(C)cccc2F)C1 [Example 180, 1-[(R)-1-(2-Fluoro-6-methyl-phenyl)-pyrrolidin-3-yl]-3-(4-isopropyl-pyridin-3-ylmethyl)-4-methoxy-1,3-dihydro-benzoimidazol-2-one]
27 | 6 nM | COc1cccc2c1n(Cc1cnccc1C(F)(F)F)c(=O)n2[C@@H]1CCN(c2c(C)cccc2F)C1 [Example 203, 1-[(R)-1-(2-Fluoro-6-methyl-phenyl)-pyrrolidin-3-yl]-4-methoxy-3-(4-trifluoromethyl-pyridin-3-ylmethyl)-1,3-dihydro-benzoimidazol-2-one]
